One data set deals with T1, AChE (Electrophorus electricus, UniProt O42275).
T1 construct: native enzyme, Type V-S lyophilized powder, Sigma-Aldrich
Kind of data set: Ellman colorimetric assay. It is filed as biochemical. To be noted: read-out: IC50 ± SD / AChE ^a. For orientation: DTNB colorimetry detects thiols as they appear.

In data set [1] the target is T2, BuChE (Equus caballus, UniProt P81908). As to the kind of experiment: time-dependent Ellman assay, kobs analysis. To be noted: read-out: kc; equilibrium constant of reversible step before carbamylation; covalent. Also on record: gene BCHE.
Data set [2] is described as follows: in vitro. On the set-up: MTT cytotoxicity, absorbance at 570 nm, HT-22 mouse hippocampal neuronal cells. To be noted: mouse, ht-22; read-out: IC50 ± SD / HT-22 ^a. The protocol:
The cell lines present in this study were purchased from the China Center for Type Collection (CCTCC, China). For cytotoxicity assay, HT-22, BV2, SH-SY5Y, HepG2, and LO2 cells were incubated in 96-well plates at the density of 5 × 10³ per well. After incubation for 12 h at 37°C, the tested compounds with the required concentrations were added to the corresponding wells and continuously incubated for 24 h at 37°C. Then, the prepared MTT (3-[4,5-dimethyl-2-thiazolyl]-2,5-diphenyl-2H-tetrazolium bromide) solution was added to each well and co-incubated for another 4 h at 37°C. Then, the supernatant was removed, and 100 μl DMSO was added to each well. The OD value of each well was detected at 570 nm using a microplate reader (Bio-Rad Laboratories, CA, United States). The IC50 values were calculated using IBM SPSS Statistics 25.0 software. All experiments were performed in triplicate, and the results were shown as the mean ± SD. In order to explore the applicability of the synthesized CTDs in neurological diseases, the neuronal cytotoxicity of the synthesized compounds was evaluated on mouse hippocampal neuronal cell line HT-22. […] In view of these CTDs endowed strong inhibition efficacy on BuChE, we preliminarily evaluated their safety range by comparing their IC50 values on cytotoxicity and BuChE inhibitory activity. […] Therefore, the series of compounds with dibenzyl groups, especially compounds bearing ring carbon alkyl chains (2f-2h) and tertiary amine residues (2j-2u) with little cytotoxicity on HT-22, can be considered as potential lead building blocks for further structure optimization to develop novel effective agents against neurological diseases.

For data set [3], the target named is T2, BuChE. Kind of data set: Ellman colorimetric assay. The class given is biochemical. Also on record: gene BCHE; native enzyme from equine serum, purchased from Sigma-Aldrich. To be noted: read-out: IC50 ± SD / BuChE ^a.
A short description of data set [4]: in vitro. On the set-up: species or system SH-SY5Y, HepG2; MTT cytotoxicity, absorbance at 570 nm. To be noted: human, lo2 cells; read-out: ^a IC50 ± SD (μM) / LO2. The protocol: (§1) The cell lines present in this study were purchased from the China Center for Type Collection (CCTCC, China). For cytotoxicity assay, HT-22, BV2, SH-SY5Y, HepG2, and LO2 cells were incubated in 96-well plates at the density of 5 × 10³ per well. After incubation for 12 h at 37°C, the tested compounds with the required concentrations were added to the corresponding wells and continuously incubated for 24 h at 37°C. Then, the prepared MTT (3-[4,5-dimethyl-2-thiazolyl]-2,5-diphenyl-2H-tetrazolium bromide) solution was added to each well and co-incubated for another 4 h at 37°C. Then, the supernatant was removed, and 100 μl DMSO was added to each well. The OD value of each well was detected at 570 nm using a microplate reader (Bio-Rad Laboratories, CA, United States). The IC50 values were calculated using IBM SPSS Statistics 25.0 software. All experiments were performed in triplicate, and the results were shown as the mean ± SD. In order to further evaluate the applicability of the compounds with dibenzyl groups for neurological diseases, we also tested the cytotoxicity of the selected compounds (2f, 2h, 2j, 2m, 2o-2r, 2t, and 2u) bearing little toxicity on HT-22 cells, microglia cell line BV2, and human neuroblastoma cell line SH-SY5Y, which are widely used in the study of neurological diseases. […] In view of some carbamate-based ChE inhibitors reported to be hepatotoxic, we further performed the preliminary evaluation of the hepatotoxicity of the selected compounds on human normal liver cell line LO2 and human hepatocellular carcinoma cell line HepG2.

Data set [5] is described as follows: in vitro. On the set-up: species or system LO2, HepG2; MTT cytotoxicity, absorbance at 570 nm. To be noted: human, sh-sy5y; read-out: ^a IC50 ± SD (μM) / SH-SY5Y. The protocol: as §1
Data set [6] in a line: in vitro. On the set-up: species or system SH-SY5Y, LO2; MTT cytotoxicity, absorbance at 570 nm. The following applies: human, read-out: ^a IC50 ± SD (μM) / HepG2. The protocol:
as §1

Each structure is given as a SMILES string. Like-named read-outs stand apart in the source and are kept apart here.

T1 sequence (O42275 24-633): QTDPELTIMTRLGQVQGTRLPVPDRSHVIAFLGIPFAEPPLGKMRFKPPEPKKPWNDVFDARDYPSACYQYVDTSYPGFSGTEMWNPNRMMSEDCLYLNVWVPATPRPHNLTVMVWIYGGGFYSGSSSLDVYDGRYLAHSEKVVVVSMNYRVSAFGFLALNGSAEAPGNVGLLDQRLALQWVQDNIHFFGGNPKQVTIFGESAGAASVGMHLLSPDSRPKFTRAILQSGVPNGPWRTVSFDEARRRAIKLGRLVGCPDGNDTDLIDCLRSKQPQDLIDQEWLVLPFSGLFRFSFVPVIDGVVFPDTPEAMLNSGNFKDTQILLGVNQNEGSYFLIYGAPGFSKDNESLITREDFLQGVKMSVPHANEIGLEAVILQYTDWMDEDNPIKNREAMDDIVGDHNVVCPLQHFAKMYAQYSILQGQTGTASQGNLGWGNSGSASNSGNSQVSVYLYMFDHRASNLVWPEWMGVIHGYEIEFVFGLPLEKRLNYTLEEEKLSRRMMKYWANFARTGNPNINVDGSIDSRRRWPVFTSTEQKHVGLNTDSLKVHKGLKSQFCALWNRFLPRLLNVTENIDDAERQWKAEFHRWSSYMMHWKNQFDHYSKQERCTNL
T2 sequence (P81908 whole entry): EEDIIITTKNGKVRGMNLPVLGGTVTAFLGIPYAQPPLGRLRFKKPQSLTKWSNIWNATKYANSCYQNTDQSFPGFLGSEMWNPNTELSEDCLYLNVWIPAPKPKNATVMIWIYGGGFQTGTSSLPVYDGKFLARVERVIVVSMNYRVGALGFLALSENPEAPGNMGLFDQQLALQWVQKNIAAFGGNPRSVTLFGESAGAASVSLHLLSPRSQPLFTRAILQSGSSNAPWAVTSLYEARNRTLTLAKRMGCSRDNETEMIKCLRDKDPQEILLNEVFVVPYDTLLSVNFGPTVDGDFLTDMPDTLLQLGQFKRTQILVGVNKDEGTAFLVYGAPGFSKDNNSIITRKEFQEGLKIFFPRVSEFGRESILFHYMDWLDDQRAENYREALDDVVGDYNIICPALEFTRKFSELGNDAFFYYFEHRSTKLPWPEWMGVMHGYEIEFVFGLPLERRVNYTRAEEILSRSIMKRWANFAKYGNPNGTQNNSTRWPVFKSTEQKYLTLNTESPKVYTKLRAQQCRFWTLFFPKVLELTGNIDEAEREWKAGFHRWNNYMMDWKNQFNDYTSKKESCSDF

Consider `CCCCCNC(=O)Oc1ccc2[nH]cc(CCN(Cc3ccccc3)Cc3ccccc3)c2c1` [2c, 3-(2-(dibenzylamino)ethyl)-1H-indol-5-yl pentylcarbamate], for which the IC50 on AChE is greater than 100 µM; on BuChE [3], 0.0021 ± 0.00014 µM. In addition, on BuChE [1], the KI (inactivation) turned out to be 0.00705 µM. For the same compound, in the data set “in vitro [2]”, the CC50 at 24 h was 37.47 ± 0.23 µM.
`O=C(NC1CCCCC1)Oc1ccc2[nH]cc(CCN(Cc3ccccc3)Cc3ccccc3)c2c1` [2h, 3-(2-(dibenzylamino)ethyl)-1H-indol-5-yl cyclohexylcarbamate]: the IC50 at AChE is greater than 100 µM; at BuChE [3], 0.016 ± 0.00032 µM. The CC50 at 24 h in the data set “in vitro [4]” is greater than 100 µM; in the data set “in vitro [2]”, 74.2 ± 1.5 µM; in the data set “in vitro [5]”, greater than 100 µM.
Consider `CN(C)C(=O)Oc1ccc2[nH]cc(CCN(Cc3ccccc3)Cc3ccccc3)c2c1` [2j, 3-(2-(dibenzylamino)ethyl)-1H-indol-5-yl dimethylcarbamate], for which the IC50 at AChE is greater than 100 µM; on BuChE [3], 0.00677 ± 0.00027 µM. For the same compound, the CC50 at 24 h in the data set “in vitro [4]”, in the data set “in vitro [2]”, in the data set “in vitro [5]” and in the data set “in vitro [6]” (hepg2) was greater than 100 µM throughout.
Consider `CCCCN(CCCC)C(=O)Oc1ccc2[nH]cc(CCN(Cc3ccccc3)Cc3ccccc3)c2c1` [2m, 3-(2-(dibenzylamino)ethyl)-1H-indol-5-yl dibutylcarbamate], for which the IC50 on AChE was greater than 100 µM; at BuChE [3], 0.0138 ± 0.00067 µM. Moreover, the CC50 at 24 h in the data set “in vitro [4]” was greater than 100 µM; in the data set “in vitro [2]”, 65.28 ± 0.09 µM; in “in vitro [5]” it was greater than 100 µM; in “in vitro [6]” (hepg2), greater than 100 µM.
On to `CON(C)C(=O)Oc1ccc2[nH]cc(CCN(Cc3ccccc3)Cc3ccccc3)c2c1` [2o, 3-(2-(dibenzylamino)ethyl)-1H-indol-5-yl methoxy(methyl)carbamate], for which the IC50 at AChE amounted to 2.93 µM; on BuChE [3] it was 0.00865 ± 0.00034 µM. The CC50 at 24 h in “in vitro [2]” is 72.1 ± 2.23 µM; in “in vitro [5]”, greater than 100 µM.
With `CN(C(=O)Oc1ccc2[nH]cc(CCN(Cc3ccccc3)Cc3ccccc3)c2c1)c1ccccc1` [2p, 3-(2-(dibenzylamino)ethyl)-1H-indol-5-yl methyl(phenyl)carbamate], the results for the IC50 on AChE and on BuChE [3] were greater than 100 µM and 0.0189 ± 0.00134 µM, respectively. For the same compound, the CC50 at 24 h in the data set “in vitro [4]”, in the data set “in vitro [2]”, in the data set “in vitro [5]” and in the data set “in vitro [6]” (hepg2 cells) was greater than 100 µM each time.
Take `O=C(Oc1ccc2[nH]cc(CCN(Cc3ccccc3)Cc3ccccc3)c2c1)N1CCC1` [2q, 3-(2-(dibenzylamino)ethyl)-1H-indol-5-yl azetidine-1-carboxylate]: the IC50 at AChE was 0.742 ± 0.00987 µM; at BuChE [3], 0.00165 ± 3e-05 µM. Further, the figures for the CC50 at 24 h in the data set “in vitro [2]” and in “in vitro [6]” (hepg2 cells) were 86.5 ± 1.82 µM and greater than 100 µM, respectively.
Take `O=C(Oc1ccc2[nH]cc(CCN(Cc3ccccc3)Cc3ccccc3)c2c1)N1CCCC1` [2r, 3-(2-(dibenzylamino)ethyl)-1H-indol-5-yl pyrrolidine-1-carboxylate]: the IC50 is greater than 100 µM on AChE and 0.0205 ± 0.0017 µM on BuChE [3]. Further, the CC50 at 24 h in the data set “in vitro [4]” was greater than 100 µM; in “in vitro [2]” it was 79.8 ± 5.36 µM; in the data set “in vitro [5]” it was greater than 100 µM; in “in vitro [6]” (hepg2), greater than 100 µM.
On to `O=C(Oc1ccc2[nH]cc(CCN(Cc3ccccc3)Cc3ccccc3)c2c1)N1CCCCCC1` [2t, 3-(2-(dibenzylamino)ethyl)-1H-indol-5-yl azepane-1-carboxylate], for which the IC50 was greater than 100 µM at AChE and 0.068 ± 0.00842 µM on BuChE [3]. The CC50 at 24 h in the data set “in vitro [4]”, in the data set “in vitro [2]” and in the data set “in vitro [6]” (hepg2) was greater than 100 µM in each case.
Regarding `O=C(Oc1ccc2[nH]cc(CCN(Cc3ccccc3)Cc3ccccc3)c2c1)N1CCOCC1` [2u, 3-(2-(dibenzylamino)ethyl)-1H-indol-5-yl morpholine-4-carboxylate], the results for the IC50 at AChE and on BuChE [3] were greater than 100 µM and 0.114 ± 0.00145 µM, respectively. Further, the CC50 at 24 h in the data set “in vitro [4]” was greater than 100 µM; in the data set “in vitro [2]” it was 78.7 ± 3.79 µM; in “in vitro [5]”, greater than 100 µM; in “in vitro [6]” (hepg2), greater than 100 µM.

Values taken from PMC9742383, “From tryptamine to the discovery of efficient multi-target directed ligands against cholinesterase-associated neurodegenerative disorders” (Frontiers in Pharmacology, 2022).
